This passage reports IC50, Ratio IC50 and inhibition results from ChEMBL document CHEMBL3259521, “Design, synthesis, and SAR of embelin analogues as the inhibitors of PAI-1 (plasminogen activator inhibitor-1)” (Bioorg Med Chem Lett, 2014).

Calls of active or inactive are those of the source. No cut-off for these calls is given here.

What is called IC50 is the concentration that inhibits the measured activity by half.

Assay [1] can be described thus: Inhibition of hexa-His-tagged PAI-1 N152H/K156T/Q321L/M356I mutant (unknown origin) expressed in Escherichia coli BL21(DE3) after 10 mins by uPA-based assay. Also on record: species or system Homo sapiens.
The species entered for assay [2] is Homo sapiens. Kind of assay: Ratio of embelin IC50 to compound IC50 for hexa-His-tagged PAI-1 N152H/K156T/Q321L/M356I mutant (unknown origin) expressed in Escherichia coli BL21(DE3).
For assay [3], the species on record is Homo sapiens. Description: Inhibition of hexa-His-tagged PAI-1 N152H/K156T/Q321L/M356I mutant (unknown origin) expressed in Escherichia coli BL21(DE3) at 100 uM after 10 mins by uPA-based assay.

On to `CCCCCCCCCC1=C(O)C(=O)C(CCCC)=C(O)C1=O`, for which the IC50 in assay [1] worked out at 180 nM. For the same compound, in the assay listed under Homo sapiens [2], the Ratio IC50 is 27.

`CCCCCCCCCC1=C(O)C(=O)C(Cc2ccccc2)=C(O)C1=O` showed an IC50 in assay [1] of 770 nM. For the same compound, the Ratio IC50 in the assay listed under Homo sapiens [2] came to 6.5.

Take `CCCCCCCC1=C(O)C(=O)C=C(O)C1=O`: the half-maximal inhibitory concentration (IC50) in assay [1] was 3870 nM.

In turn, `CCCCCCCC1=C(O)C(=O)C(CCCCCCC)=C(O)C1=O` gave a half-inhibitory concentration (IC50) in assay [1] of 510 nM. Further, the Ratio IC50 in the assay filed under Homo sapiens [2] turned out to be 10.

Compound `CCCCCCCCCC1=C(O)C(=O)C=C(O)C1=O` registered an IC50 in assay [1] of 1780 nM.

Take `CCCCCCCCCC1=C(O)C(=O)C(CCC)=C(O)C1=O`: half-maximal inhibition in assay [1] (IC50) required 380 nM. In addition, the Ratio IC50 in the assay filed under Homo sapiens [2] worked out at 13.

The compound `CCCCCC1=C(O)C(=O)C=C(O)C1=O` showed an IC50 in assay [1] of 4560 nM.

Take `C=CCC1=C(O)C(=O)C(CCCCCCCCC)=C(O)C1=O`: in assay [1], half-maximal inhibition (IC50) was put at 750 nM. Also, the Ratio IC50 in the assay listed under Homo sapiens [2] is 6.5.

The compound `CCCCCCCCCCCC1=C(O)C(=O)C=C(O)C1=O` [EMBELIN] came in with an IC50 in assay [1] of 4940 nM.

In turn, `CCCC1=C(O)C(=O)C(CCC)=C(O)C1=O` registered an IC50 in assay [1] of 5680 nM.

`CCCCCCCCCC1=C(O)C(=O)C(CCCCC)=C(O)C1=O` registered an IC50 in assay [1] of 630 nM. In addition, the Ratio IC50 in the assay filed under Homo sapiens [2] was found to be 8.

Regarding `CCCCCCCCCCCC1=C(OC)C(=O)C=C(OC)C1=O`, the inhibition result in the assay listed under Homo sapiens [3] was “inactive”.

`CCCCCCC1=C(O)C(=O)C=C(O)C1=O` gave an IC50 in assay [1] of 4180 nM.

For the compound `CCCCCCC1=C(O)C(=O)C(CCCCCC)=C(O)C1=O`, it took 580 nM to reach half-maximal inhibition in assay [1] (IC50). Besides, the Ratio IC50 in the assay listed under Homo sapiens [2] amounted to 9.

Regarding `CCCCCCCCCCCC1=C(O)C(=O)C=C(OC)C1=O` [5-O-METHYLEMBELIN], the IC50 in assay [1] was determined as 90200 nM.

In assay [1], `CCCCC1=C(O)C(=O)C(CCCC)=C(O)C1=O` had an IC50 of 7110 nM.

In assay [1], `CCCCCCCCCC1=C(O)C(=O)C(CCCCCCC)=C(O)C1=O` came in with an IC50 of 950 nM. Moreover, in the assay filed under Homo sapiens [2], the Ratio IC50 was 5.

As to `CCCCCCCCC1=C(O)C(=O)C=C(O)C1=O`, the IC50 in assay [1] turned out to be 1870 nM.

Regarding `CCCCCC1=C(O)C(=O)C(CCCCC)=C(O)C1=O`, it took 920 nM to reach half-maximal inhibition in assay [1] (IC50). In addition, the Ratio IC50 in the assay filed under Homo sapiens [2] was found to be 5.

Consider `CCCCCCCCC1=C(O)C(=O)C(CCCCCCCC)=C(O)C1=O`, for which the IC50 in assay [1] turned out to be 890 nM. The Ratio IC50 in the assay filed under Homo sapiens [2] worked out at 5.
